Assay results as given in patent US20090221610A1, “Compositions and Methods for Treating Cognitive Disorders” (Yale University, priority 2006, published 2009).
“Also recorded” adds a separate entry of the source.

Assays:
PFC neurons = assay: Single neuron recording and iontophoresis in monkeys performing a spatial WM (ODR) task; format: in vivo, rhesus monkeys; conditions: for Decreased: percent of neurons, spatial delay-related firing / Un-changed: number of neurons, spatial delay-related firing / Un-changed: percent of neurons, spatial delay-related firing / Decreased: number of neurons, spatial delay-related firing / Increased: percent of neurons, spatial delay-related firing / Increased: number of neurons, spatial delay-related firing of PFC neurons / Increased: number of neurons, spatial delay-related firing: iontophoresis; for Increased: number of neurons, spatial delay-related firing of PFC neurons: low dose 5-15 nA (text: ZD7288 10 nA); for Increased: number of neurons, spatial delay-related firing: no dose in table (text: Sp-cAMPS 10 nA, Rp-cAMPS 40-50 nA); for Reversal of the enhancing effects of guanfacine on delay-related activity: co-iontophoresis with guanfacine (yohimbine 15 nA; Sp-cAMPS 10 nA); for Reversal: number of neurons / Reversal: percent of neurons / No Reversal: number of neurons / No Reversal: percent of neurons: co-iontophoresis
Protocol: Studies were performed on 4 adult male rhesus monkeys trained on the spatial ODR task (FIG. 3). Iontophoretic electrodes, neuronal recording and drug delivery were as described in (Wang et al., 2004) and also are provided in the Supplemental Material. Guanfacine, yohimbine, ZD7288(Tocris, Ellisville, Mo.) and etazolate (Sigma, St. Louis, Mo.) were dissolved at 0.01M in triple-distilled water (adjusted with HCl to pH 3.5-4.0). Sp-cAMP and Rp-cAMP (Sigma) were dissolved at 0.01M in triple-distilled water (adjusted with NaOH to pH 9). Two-way ANOVA was used to examine the spatial tuned task-related activity with regard to: (1) different periods of the task (cue, delay, response vs. fixation) and (2) different cue locations. One-way ANOVAs were employed to assess the effect of the drug application on cells displaying delay-related activity. Monkeys performed an oculomotor spatial delayed response (ODR) task, illustrated in FIG. 3A. The ODR task requires the monkey to make a memory-guided […] to a visuo-spatial target. Stimulus position was randomized over trials to ensure use of WM. Neurons were recorded from area 46 of the dorsolateral PFC (FIG. 3B) as the monkey performed the task. […] In the present study, 128 neurons with delay-related mnemonic activity were isolated and subjected to iontophoretic application of pharmacological agents See Table 1, below summarizing the effects of drugs (Table 1) and their reversal (Table 2) on PFC neuronal response.

rat prefrontal cortex [1] = assay: Spatial delayed alternation task in a T maze after intra-PFC infusion; format: in vivo
rat prefrontal cortex [2] = assay: as above; format: in vivo; remark: listed apart in the source
Protocol: Rats (n=5) were tested on the spatial delayed alternation task in a T maze, a classical test of prefrontal cortical function in rodents (Larsen and Divac, Physiolog Psychol, 6:15-17, 1978). Rats were trained on the task, and then implanted with cannula aimed at the prelimbic prefrontal cortex as described in (Ramos, et al., Neuron, 40:835-845, 2003). Following recovery from surgery, rats were infused with saline (0.5 μl), the Ih channel blocker ZD7288 (0.0001 μg/0.5 μl), the cAMP analog […]), or a combination of ZD7288 (0.0001 μ[…] (0.21 nmol). There was at least one week washout between drug treatments, and a within subjects comparison was performed (2 way analysis of variance with repeated measures with user defined contrasts). […] Male Sprague Dawley rats (240-260 g; Taconic, Germantown, N.Y.) were trained on the delayed alternation task as described in Ramos et al., 2003. Guide cannula were implanted dorsal in prelimbic PFC (AP: +3.2 mm; ML: ±0.75 mm; DV: -4.2 mm). For infusions, needles reached to 4.5 mm DV; infused at 0.25 μL/min for 2 min. Drug or vehicle was administered in a counterbalanced order with at least 1 week between infusions. […] The experimenter was blind to treatment.

ferret PFC slices = assay: In vitro extracellular multiple unit and intracellular recording from PFC slices; format: cell-based; conditions: bath application 20-50 micromolar
Protocol: Methods for extracellular multiple unit and intracellular recording in ferret PFC slices have been detailed elsewhere (Shu et al., 2003). Slices (0.4 mm) from 2-4 month old ferret PFC were maintained in either an interface or submerged chamber (35-36° C.) in a slice solution containing (in mM): NaCl, 126; KCl, 3.1; MgSO4, 1; NaHPO4, 1.25; CaCl2, 1; NaHCO3, 26; dextrose, 10, and aerated with 95% O2, 5% CO2 to a final pH of 7.4. Simultaneous extracellular multiple unit and intracellular recordings were performed in layer 5 with the electrodes approximately […] of one another. Intracellular micropipettes contained 2 M potassium acetate, while whole cell recording pipettes contained KGluconate 140, KCl 3, MgCl2 2, Na2ATP 2, HEPES 10, and EGTA 0.2. The cellular and network consequences of modulation of HCN channels was examined with intracellular and whole cell recordings from layer 5 pyramidal cells simultaneously with extracellular multiple unit recordings in the ferret PFC in vitro (n=55, see FIG. 6G). Under normal conditions, these slices generate Up and Down states, consisting of repeating periods of recurrent network activity (Shu et al., 2003).

[3] = no dose in table (yohimbine 15 nA, Sp-cAMPS 10 nA, etazolate 25 nA)
[4] = iontophoresis 10 nA, example neuron

SMILES	Decreased: percent of neurons, spatial delay-related firing (PFC neurons; no dose in table)	Un-changed: number of neurons, spatial delay-related firing (PFC neurons; no dose in table)	Un-changed: percent of neurons, spatial delay-related firing (PFC neurons; no dose in table)	Decreased: number of neurons, spatial delay-related firing (PFC neurons; [3])	Effect on delay-related firing for the preferred direction (PFC neurons; [4])	Increased: percent of neurons, spatial delay-related firing (PFC neurons; 5-15 nA)	Un-changed: number of neurons, spatial delay-related firing (PFC neurons; 5-15 nA)	Un-changed: percent of neurons, spatial delay-related firing (PFC neurons; 5-15 nA)	Decreased: percent of neurons, spatial delay-related firing (PFC neurons; 20-50 nA)	Decreased: number of neurons, spatial delay-related firing (PFC neurons; high dose 20-50 nA)	Increased: number of neurons, spatial delay-related firing of PFC neurons (PFC neurons)	Increased: percent of neurons, spatial delay-related firing (PFC neurons; no dose in table)	Increased: number of neurons, spatial delay-related firing (PFC neurons)	Reversal of the enhancing effects of guanfacine on delay-related activity (PFC neurons)	Reversal: number of neurons (PFC neurons; reversal of guanfacine)	Reversal: percent of neurons (PFC neurons; reversal of guanfacine)	further results
CCOC(=O)c1cnc2c(cnn2CC)c1NN=C(C)C [Etazolate]	(83%)	2	17%	10													
NC(N)=NC(=O)Cc1c(Cl)cccc1Cl [Guanfacine, N-(diaminomethylidene)-2-(2,6-dichlorophenyl)acetamide]					substantially increased; also recorded: significantly increased	(80%)	7	20%	(100%)	9	28						Effect on delay-related firing (PFC neurons; iontophoresis 50 nA, higher dose): did not have enhancing effects; Spatial working memory performance (percent correct, delayed alternation) (rat prefrontal cortex [1]; aged rats (n=9), prefrontal infusion 0.0001 μg): significantly different than saline
Nc1ncnc2c1ncn2[C@@H]1O[C@@H]2COP(O)(=S)O[C@H]2[C@H]1O (stereo partly drawn) [Rp-cAMP]		4	33%									(67%)	8				Effect on delay-related firing for the preferred direction (PFC neurons; iontophoresis 40-50 nA): specifically increased; Increased: number of neurons, spatial delay-related firing (PFC neurons; listed as Rp-cAMPS): 8
Nc1ncnc2c1ncn2[C@@H]1O[C@@H]2COP(O)(=S)O[C@H]2[C@H]1O (stereo partly drawn) [Sp-cAMP]	(48%)	5	19%	13	significantly decreased							(33%)	9	significantly reversed	6	(67%)	Reversal: number of neurons (PFC neurons; reversal of Rp-cAMP): 6; Reversal: percent of neurons (PFC neurons; reversal of Rp-cAMP): (100%); No Reversal: number of neurons (PFC neurons; reversal of guanfacine): 3; No Reversal: percent of neurons (PFC neurons; reversal of guanfacine): 33%; Increased: number of neurons, spatial delay-related firing (PFC neurons; listed as Sp-cAMPS): 9; Un-changed: number of neurons, spatial delay-related firing (PFC neurons; no dose in table, listed as Sp-cAMPS): 5; Reversal of the enhancing effect of Rp-cAMPS on delay-related firing (PFC neurons; subsequent co-iontophoresis with Rp-cAMPS): reversed; Effect of co-infusion on the guanfacine effects on working memory (rat prefrontal cortex [1]; aged rats, co-infusion with guanfacine): reversed; Effect of co-infusion on the ZD7288 improvement of working memory (rat prefrontal cortex [2]; co-infusion 0.21 nmol with ZD7288 0.0001 μg, listed as Sp-cAMPS): significantly reversed; also recorded: blocked; also recorded: significantly reduced; Spatial working memory performance compared to saline (rat prefrontal cortex [2]; intra-PFC infusion 0.21 nmol/0.5 μl alone): no effect on its own
COC(=O)[C@@H]1[C@H]2C[C@H]3c4[nH]c5ccccc5c4CCN3C[C@@H]2CC[C@@H]1O [Yohimbine]	(100%)			15										reversed	6	(100%)	Effect on delay-related activity for the preferred direction (PFC neurons; iontophoresis 15 nA): dramatically suppressed
CCN(c1ccccc1)c1cc(NC)[n+](C)c(C)n1.[Cl-] [ZD7288]					further enhanced	(70%)	8	30%	(100%)	10	19						Number of action potentials generated by a depolarizing current pulse (ferret PFC slices): increase; Up-state action potential discharge (ferret PFC slices; from 1.8±1.7 Hz, n=9): 9.2±4.9 Hz; Apparent input resistance (ferret PFC slices; from 18.6±7.5, n=10): 36±10.8 Mohms; Duration of the recurrent network activity of the Up state (ferret PFC slices; from an average of 0.84 (±0.25) before): 4.1 (±1.3) sec; Increase in duration of the recurrent network activity of the Up state (ferret PFC slices; n=10): ~500%; Membrane potential of layer 5 pyramidal neurons (ferret PFC slices; n=12): progressive hyperpolarization; Reversal of the reduction in delay-related firing induced by etazolate (PFC neurons; co-iontophoresis with etazolate): fully reversed; Reversal of the yohimbine suppression of delay-related activity (PFC neurons; co-iontophoresis with yohimbine (15 nA)): significantly reversed; No Reversal: number of neurons (PFC neurons; reversal of etazolate): 2; No Reversal: percent of neurons (PFC neurons; reversal of etazolate): 25%; Reversal: number of neurons (PFC neurons; reversal of etazolate): 6; Reversal: percent of neurons (PFC neurons; reversal of etazolate): (75%); No Reversal: number of neurons (PFC neurons; reversal of yohimbine): 2; No Reversal: percent of neurons (PFC neurons; reversal of yohimbine): 31%; Reversal: number of neurons (PFC neurons; reversal of yohimbine): 7; Reversal: percent of neurons (PFC neurons; reversal of yohimbine): (71%); Reversal: number of neurons (PFC neurons; reversal of yohimbine, listed as ZD 7288): 5; Effect on delay-related firing for the preferred direction (PFC neurons; iontophoresis 5 nA, example neuron): significantly increased; Effect on delay-related firing (PFC neurons; iontophoresis 40 nA, highest concentration): decreased rather than increased firing; Spatial working memory performance (percent correct, delayed alternation) compared to saline (rat prefrontal cortex [2]; intra-PFC infusion 0.0001 μg/0.5 μl, n=5): significantly improved
